Measured values as given in patent US10519152B2, “Compounds and their use in treating cancer” (AstraZeneca AB, priority 2017, dated 2019).

Target: T1, Estrogen Receptor (ERα) in MCF-7 human ductal carcinoma breast cell line (Homo sapiens, UniProt P03372)
T1 construct: endogenous in cells; host or cells: MCF-7
T1 sequence (P03372 1-595): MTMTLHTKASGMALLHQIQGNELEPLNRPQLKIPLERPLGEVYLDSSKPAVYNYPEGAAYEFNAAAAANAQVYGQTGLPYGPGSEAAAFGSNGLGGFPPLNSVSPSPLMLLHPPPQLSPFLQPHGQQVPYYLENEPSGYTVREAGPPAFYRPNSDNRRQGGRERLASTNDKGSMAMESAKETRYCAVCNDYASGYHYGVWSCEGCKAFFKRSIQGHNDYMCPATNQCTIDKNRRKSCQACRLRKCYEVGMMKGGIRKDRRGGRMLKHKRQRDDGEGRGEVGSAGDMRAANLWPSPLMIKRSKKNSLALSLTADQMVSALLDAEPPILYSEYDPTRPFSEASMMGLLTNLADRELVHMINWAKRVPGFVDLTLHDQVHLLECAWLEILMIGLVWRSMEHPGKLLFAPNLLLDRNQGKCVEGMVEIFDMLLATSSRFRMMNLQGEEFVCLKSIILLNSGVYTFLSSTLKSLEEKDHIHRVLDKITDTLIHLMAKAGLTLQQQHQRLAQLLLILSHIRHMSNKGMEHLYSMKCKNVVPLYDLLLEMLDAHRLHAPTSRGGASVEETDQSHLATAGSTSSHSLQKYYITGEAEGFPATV
Test: MCF-7 ER degradation assay (cell based immuno-fluorescence)
Conditions: MCF-7 cells; for ER degradation ≥ 90% at 0.3 μM: ER degradation by fulvestrant at 0.3 μM is defined as 100%; for DC50: 18-22 hours incubation, 50% reduction of ERα expression, single experiment or average of two or more, read-out: MCF-7 ER degradation IC50
Summary of the method: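 MCF-7 human ductal carcinoma breast cells were seeded at 3.75×10^4 cells per mL (40 μL per well) in 384 well plates with phenol red free DMEM containing 2 mM L-Glutamine and 5% (v/v) Charcoal/Dextran treated foetal calf serum. After overnight culture, compounds were acoustically dispensed, incubated 18-22 hours, then cells were formaldehyde-fixed and immunostained for ERα.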

Row | Structure (SMILES) | ER degradation ≥ 90% at 0.3 μM | DC50 [nM]
1 | Cc1ncsc1-c1ccc(CNC(=O)[C@@H]2C[C@@H](O)CN2C(=O)[C@@H](NC(=O)COCCOCCOCCOCCOCC(=O)Nc2ccc([C@@H]3c4[nH]c5ccccc5c4C[C@@H](C)N3CC(C)(C)F)cc2)C(C)(C)C)cc1 [Example 56, N^1-(4-((1R,3R)-2-(2-fluoro-2-methylpropyl)-3-methyl-2,3,4,9-tetrahydro-1H-pyrido[3,4-b]indol-1-yl)phenyl)-N^17—((S)-1-((2S,4R)-4-hydroxy-2-((4-(4-methylthiazol-5-yl)benzyl)carbamoyl)pyrrolidin-1-yl)-3,3-dimethyl-1-oxobutan-2-yl)-3,6,9,12,15-pentaoxaheptadecanediamide, Trifluoroacetic Acid] | •• | 1.5
2 | Cc1ncsc1-c1ccc(CNC(=O)[C@@H]2C[C@@H](O)CN2C(=O)[C@@H](NC(=O)COCCOCCOCCOc2cc(F)c([C@@H]3c4[nH]c5ccccc5c4C[C@@H](C)N3CC3(F)CC3)c(F)c2)C(C)(C)C)cc1 [Example 77, (2S,4R)-1-((S)-2-(tert-Butyl)-14-(3,5-difluoro-4-((1R,3R)-2-((1-fluorocyclopropyl)methyl)-3-methyl-2,3,4,9-tetrahydro-1H-pyrido[3,4-b]indol-1-yl)phenoxy)-4-oxo-6,9,12-trioxa-3-azatetradecanoyl)-4-hydroxy-N-(4-(4-methylthiazol-5-yl)benzyl)pyrrolidine-2-carboxamide] | •• | 1
3 | Cc1ncsc1-c1ccc(CNC(=O)[C@@H]2C[C@@H](O)CN2C(=O)[C@@H](NC(=O)Cc2ccc(OCCOCCNC(=O)/C=C/c3cc(F)c([C@@H]4c5[nH]c6ccccc6c5C[C@@H](C)N4CC(C)(C)F)c(F)c3)cc2)C(C)(C)C)cc1 [Example 66, (2S,4R)-1-((S)-2-(2-(4-(2-(2-((E)-3-(3,5-difluoro-4-((1R,3R)-2-(2-fluoro-2-methylpropyl)-3-methyl-2,3,4,9-tetrahydro-1H-pyrido[3,4-b]indol-1-yl)phenyl)acrylamido)ethoxy)ethoxy)phenyl)acetamido)-3,3-dimethylbutanoyl)-4-hydroxy-N-(4-(4-methylthiazol-5-yl)benzyl)pyrrolidine-2-carboxamide, Trifluoroacetic Acid] | • | 2.2
4 | Cc1ncsc1-c1ccc([C@H](C)NC(=O)[C@@H]2C[C@@H](O)CN2C(=O)[C@@H](NC(=O)COCCOCCOCCOc2cc(F)c([C@@H]3c4[nH]c5ccccc5c4C[C@@H](C)N3CC(C)(C)F)c(F)c2)C(C)(C)C)cc1 [Example 3, (2S,4R)-1-((S)-2-(tert-Butyl)-14-(3,5-difluoro-4-((1R,3R)-2-(2-fluoro-2-methylpropyl)-3-methyl-2,3,4,9-tetrahydro-1H-pyrido[3,4-b]indol-1-yl)phenoxy)-4-oxo-6,9,12-trioxa-3-azatetradecanoyl)-4-hydroxy-N—((S)-1-(4-(4-methylthiazol-5-yl)phenyl)ethyl)pyrrolidine-2-carboxamide] | •• | 0.3
5 | Cc1ncsc1-c1ccc(CNC(=O)[C@@H]2C[C@@H](O)CN2C(=O)[C@@H](NC(=O)COCCOCCOCCNC(=O)/C=C/c2cc(F)c([C@@H]3c4[nH]c5ccccc5c4C[C@@H](C)N3CC(C)(C)F)c(F)c2)C(C)(C)C)cc1 [Example 63, (2S,4R)-1-((S,E)-2-(tert-butyl)-18-(3,5-difluoro-4-((1R,3R)-2-(2-fluoro-2-methylpropyl)-3-methyl-2,3,4,9-tetrahydro-1H-pyrido[3,4-b]indol-1-yl)phenyl)-4,16-dioxo-6,9,12-trioxa-3,15-diazaoctadec-17-enoyl)-4-hydroxy-N-(4-(4-methylthiazol-5-yl)benzyl)pyrrolidine-2-carboxamide, Trifluoroacetic Acid] | •• | 0.6
6 | Cc1ncsc1-c1ccc(CNC(=O)[C@@H]2C[C@@H](O)CN2C(=O)[C@@H](NC(=O)COCc2ccc(COc3cc(F)c([C@@H]4c5[nH]c6ccccc6c5C[C@@H](C)N4CC(C)(C)F)c(F)c3)nc2)C(C)(C)C)cc1 [Example 85, (2S,4R)-1-((S)-2-(2-((6-((3,5-difluoro-4-((1R,3R)-2-(2-fluoro-2-methylpropyl)-3-methyl-2,3,4,9-tetrahydro-1H-pyrido[3,4-b]indol-1-yl)phenoxy)methyl)pyridin-3-yl)methoxy)acetamido)-3,3-dimethylbutanoyl)-4-hydroxy-N-(4-(4-methylthiazol-5-yl)benzyl)pyrrolidine-2-carboxamide] | •• | 0.6
7 | Cc1ncsc1-c1ccc(CNC(=O)[C@@H]2C[C@@H](O)CN2C(=O)[C@@H](NC(=O)COCCCCCCCOc2cc(F)c([C@@H]3c4[nH]c5ccccc5c4C[C@@H](C)N3CC(F)(F)CO)c(F)c2)C(C)(C)C)cc1 [Example 78, (2S,4R)-1-((S)-2-(2-((7-(4-((1R,3R)-2-(2,2-Difluoro-3-hydroxypropyl)-3-methyl-2,3,4,9-tetrahydro-1H-pyrido[3,4-b]indol-1-yl)-3,5-difluorophenoxy)heptyl)oxy)acetamido)-3,3-dimethylbutanoyl)-4-hydroxy-N-(4-(4-methylthiazol-5-yl)benzyl)pyrrolidine-2-carboxamide] | •• | 0.6
8 | Cc1ncsc1-c1ccc(CNC(=O)[C@@H]2C[C@@H](O)CN2C(=O)[C@@H](NC(=O)COCc2ccc(COc3cc(F)c([C@@H]4c5[nH]c6ccccc6c5C[C@@H](C)N4CC(C)(C)F)c(F)c3)cn2)C(C)(C)C)cc1 [Example 86, (2S,4R)-1-((S)-2-(2-((5-((3,5-Difluoro-4-((1R,3R)-2-(2-fluoro-2-methylpropyl)-3-methyl-2,3,4,9-tetrahydro-1H-pyrido[3,4-b]indol-1-yl)phenoxy)methyl)pyridin-2-yl)methoxy)acetamido)-3,3-dimethylbutanoyl)-4-hydroxy-N-(4-(4-methylthiazol-5-yl)benzyl)pyrrolidine-2-carboxamide] | •• | 0.6
9 | Cc1ncsc1-c1ccc(CNC(=O)[C@@H]2C[C@@H](O)CN2C(=O)[C@@H](NC(=O)COCCCCCOc2cc(F)c([C@@H]3c4[nH]c5ccccc5c4C[C@@H](C)N3CC3(F)CC3)c(F)c2)C(C)(C)C)cc1 [Example 79, (2S,4R)-1-((S)-2-(2-((5-(3,5-difluoro-4-((1R,3R)-2-((1-fluorocyclopropyl)methyl)-3-methyl-2,3,4,9-tetrahydro-1H-pyrido[3,4-b]indol-1-yl)phenoxy)pentyl)oxy)acetamido)-3,3-dimethylbutanoyl)-4-hydroxy-N-(4-(4-methylthiazol-5-yl)benzyl)pyrrolidine-2-carboxamide] | • | 2
10 | Cc1ncsc1-c1ccc(CNC(=O)[C@@H]2C[C@@H](O)CN2C(=O)[C@@H](NC(=O)COCCCCCOc2cc(F)c([C@@H]3c4[nH]c5ccccc5c4C[C@@H](C)N3CC(F)(F)F)c(F)c2)C(C)(C)C)cc1 [Example 96] | • | 1.3
11 | Cc1ncsc1-c1ccc(CNC(=O)[C@@H]2C[C@@H](O)CN2C(=O)[C@@H](NC(=O)COCCO[C@H](C)[C@@H](C)OCCOc2cc(F)c([C@@H]3c4[nH]c5ccccc5c4C[C@@H](C)N3CC(C)(C)F)c(F)c2)C(C)(C)C)cc1 [Example 80, (2S,4R)-1-((2S,10R,11R)-2-(tert-butyl)-14-(3,5-difluoro-4-((1R,3R)-2-(2-fluoro-2-methylpropyl)-3-methyl-2,3,4,9-tetrahydro-1H-pyrido[3,4-b]indol-1-yl)phenoxy)-10,11-dimethyl-4-oxo-6,9,12-trioxa-3-azatetradecanoyl)-4-hydroxy-N-(4-(4-methylthiazol-5-yl)benzyl)pyrrolidine-2-carboxamide] | •• | 0.7
12 | Cc1ncsc1-c1ccc(CNC(=O)[C@@H]2C[C@@H](O)CN2C(=O)[C@@H](NC(=O)COCCOCCOCCCCNC(=O)c2cc(F)c([C@@H]3c4[nH]c5ccccc5c4C[C@@H](C)N3CC(C)(C)F)c(F)c2)C(C)(C)C)cc1 [Example 83, (2S,4R)-1-((S)-17-(tert-Butyl)-1-(3,5-difluoro-4-((1R,3R)-2-(2-fluoro-2-methylpropyl)-3-methyl-2,3,4,9-tetrahydro-1H-pyrido[3,4-b]indol-1-yl)phenyl)-1,15-dioxo-7,10,13-trioxa-2,16-diazaoctadecan-18-oyl)-4-hydroxy-N-(4-(4-methylthiazol-5-yl)benzyl)pyrrolidine-2-carboxamide] | •• | 0.6
